Measured values as given in BigSolDB 2.1.

Nc1nc(=O)[nH]cc1F
solubility (mole fraction)
Settings | in 1,4-dioxane | in 2-butanone | in DMF | in DMSO | in acetone | in acetonitrile | in ethyl acetate | in isopropanol | in n-butanol | in n-propanol
283.15 K | 1.13e-05 | 4.37e-05 | 0.00113 | 0.00559 | 6.9e-05 | 7e-06 | 3.5e-06 | 0.00016 | 0.000282 | 0.000222
288.15 K | 1.51e-05 | 5.91e-05 | 0.00127 | 0.00611 | 8.62e-05 | 9.6e-06 | 4.5e-06 | 0.000204 | 0.000332 | 0.000272
293.15 K | 1.92e-05 | 7.74e-05 | 0.00146 | 0.00675 | 0.000107 | 1.31e-05 | 6.2e-06 | 0.000253 | 0.000399 | 0.000334
298.15 K | 2.37e-05 | 9.76e-05 | 0.00169 | 0.00754 | 0.000131 | 1.77e-05 | 8.6e-06 | 0.000314 | 0.000477 | 0.000406
303.15 K | 2.82e-05 | 0.000121 | 0.00193 | 0.00838 | 0.000158 | 2.23e-05 | 1.14e-05 | 0.000382 | 0.000567 | 0.000489
308.15 K | 3.43e-05 | 0.000149 | 0.0022 | 0.00932 | 0.000192 | 2.84e-05 | 1.46e-05 | 0.000461 | 0.000674 | 0.000577
313.15 K | 4.17e-05 | 0.000184 | 0.00252 | 0.0103 | 0.000224 | 3.58e-05 | 1.93e-05 | 0.000548 | 0.000787 | 0.000677
318.15 K | 5.08e-05 | 0.000223 | 0.00287 | 0.0115 | 0.000273 | 4.5e-05 | 2.45e-05 | 0.000643 | 0.000916 | 0.000792
323.15 K | 6.07e-05 | 0.000271 | 0.00329 | 0.0129 | 0.000321 | 5.67e-05 | 3.11e-05 | 0.000757 | 0.00107 | 0.000923
